Source: patent US10744175B2, “Herbal composition for the treatment of Herpes” (priority 2016, dated 2020)

System: Herpes simplex virus
Assay: Administration to human subjects with Herpes symptoms (case reports)
Format: in vivo
Conditions: case 3: taken for years by man and woman positive for HSV 1 and 2
Experimental: • 1. Frequent Genital herpes outbreaks—A person from Karnataka, India, suffers from severe blistering, pain and burning around the pubic region and genitals due to one or more strains of the Herpes virus. The composition of the invention as disclosed in Example 1 is administered. […] Tiny pimple-like outbreaks around lips—A person—starts experiencing tiny pimples on their lips which later appear like blisters. Blood tests show high titer from HSV 1 antibodies. […] Each tests positive for HSV 1 and 2. […] A person reports the presence of abnormal cells along with the presence of HPV. These cells then develop into “pre-cancerous” cells. This subject daily ingests the composition of Example 1 for 4 months. […] After administration of the composition of Example 1 for over 6 months, the results for HPV come back negative. • 6. A person reports warts on their hands for about 6 years which they remove with laser therapy. This burns the skin and leaves scars. […] A person reports an HPV infection for 5 years. Within the first 6 months of daily ingestion of the composition of Example 1, all tests for HPV are negative and no recurrence is shown. • 8. A person ingests the composition of Example 1 along with an alkaline diet. This subject suffers from larger warts (around 10 in number). […]

Nc1nc2c(ncn2COCCO)c(=O)[nH]1 [acyclovir]
outcome of previous antiviral treatment: little success
